# Data from patent US8889727B2, “Topical antifungal agent” (Meiji Seika Pharma Co., Ltd., priority 2011, dated 2014).
# What was measured:
# T. rubrum ATCC10218 = assay: Measurement of antifungal activity (MIC, WST8 growth inhibition); type: cell-based; settings: Trichophyton rubrum, 96 h; 80% growth inhibition concentration; T. rubrum ATCC10218, RPMI1640/MOPS, 28° C., 4 days
# Experimental: (§1) The compounds for evaluation were dissolved in dimethyl sulfoxide (DMSO) and used. As the test medium, RPMI1640 medium containing 0.165 M 3-morpholino propane sulfonic acid (MOPS) was used. As the test strain, T. mentagrophytes ATCC18748 or T. rubrum ATCC10218 was used. 100 μL of the test strain each at a concentration of 1×10^4 conidia/mL was dispensed, mixed with compounds for evaluation on 96 well half area plate so that the concentration of DMSO becomes 1%, and cultured at 28° C. for 3 days (for T. mentagrophytes) or for 4 days (for T. rubrum). Then, 5 μL of Cell Counting Kit8 (WST8) was added and the absorbances at 450 nm and 595 nm was measured as background. Subsequently, they were incubated at 28° C. for 5 hours (for T. mentagrophytes) or overnight (for T. rubrum) to color, and again the absorbances at 450 nm and 595 nm was measured, and then calculated the growth inhibition percentages using the differences from the background, and 80% growth inhibition concentration was regarded as MIC (μg/ml). Measurement of antifungal activity was conducted by the following method. Compounds for evaluation were dissolved in dimethyl sulfoxide (DMSO) and used. As the test medium, RPMI1640 medium containing 0.165 M 3-morpholinopropane sulfonic acid (MOPS) was used. As the test strain, T. mentagrophytes ATCC18748 or T. rubrum ATCC10218 was used. 100 μL of the test strain was dispensed at a concentration of 1×10^4 conidia/mL, mixed with compounds for evaluation on 96 well half area plate so that the concentration of DMSO becomes 1%, and cultured at a culture temperature of 28° C. for 3 days (for T. mentagrophytes) or for 4 days (for T. rubrum). Then, 5 μL of Cell Counting Kit8 (WST8) was added and the absorbances at 450 nm and 595 nm was measured as background. Subsequently, they were incubated at 28° C. for 5 hours (for T. mentagrophytes) or overnight (for T. rubrum), and again measured the absorbances at 450 nm and 595 nm was measured, and then calculated the growth inhibition percentages using the differences from the background, and 80% growth inhibition concentration was regarded as MIC (μg/ml).
# [1] = test system: T. mentagrophytes ATCC18748; assay: as above; type: cell-based; settings: Trichophyton mentagrophytes, 72 h; 80% growth inhibition concentration; T. mentagrophytes ATCC18748, RPMI1640/MOPS, 28° C., 3 days
# Experimental: as §1
Structure (SMILES),MIC (T. rubrum ATCC10218) [µg/mL],MIC [1] [µg/mL],inhibition of growth at 32 µg/mL [1] [%]
"Cc1cc(C(F)(F)F)nn1-c1ccccc1O [Example 5, 2-(5-Methyl-3-trifluoromethyl-1H-pyrazol-1-yl)phenol]",32 to 64,16 to 32,–
"Oc1ccccc1-n1nc(C(F)(F)F)cc1C(F)(F)F [Example 6, 2-(3,5-Bistrifluoromethyl-1H-pyrazol-1-yl)phenol]",> 64,16 to 32,–
"Cc1ccn(-c2ccccc2O)n1 [Example 7, 2-(3-Methyl-1H-pyrazol-1-yl)phenol]",> 64,16 to 32,–
"Cc1ccnn1-c1ccccc1O [Example 8, 2-(5-Methyl-1H-pyrazol-1-yl)phenol]",> 64,16 to 32,–
"CC(C)(C)c1cc(N)n(-c2ccccc2O)n1 [Example 10, 2-(5-Amino-3-tert-butyl-1H-pyrazol-1-yl)phenol]",> 64,–,50 to 80
"Cc1cc(C)n(-c2cc(Cl)ccc2O)n1 [Example 11, 4-Chloro-2-(3,5-dimethyl-1H-pyrazol-1-yl)phenol]",32 to 64,16 to 32,–
"Cc1cc(C)n(-c2cccc(Cl)c2O)n1 [Example 12, 2-Chloro-6-(3,5-dimethyl-1H-pyrazol-1-yl)phenol]",> 64,16 to 32,–
"Cc1cc(C)n(-c2cccc(O)c2O)n1 [Example 15, 3-(3,5-Dimethyl-1H-pyrazol-1-yl)benzene-1,2-diol]",16 to 32,16 to 32,–
"Cc1cc(C)n(-c2cc(O)ccc2O)n1 [Example 16, 2-(3,5-Dimethyl-1H-pyrazol-1-yl)benzene-1,4-diol]",> 64,16 to 32,–
"Cc1nn(-c2cc(O)ccc2O)c(C)c1Cl [Example 19, 2-(4-Chloro-3,5-dimethyl-1H-pyrazol-1-yl)benzene-1,4-diol]",16 to 32,16 to 32,–
"Cc1nn(-c2cc(F)ccc2O)c(C)c1C [Example 20, 4-Fluoro-2-(3,4,5-trimethyl-1H-pyrazol-1-yl)phenol]",32 to 64,16 to 32,–
"CCOC(=O)c1c(C)nn(-c2ccccc2O)c1C [Example 22, Ethyl 1-(2-hydroxyphenyl)-3,5-dimethyl-1H-pyrazol-4-carboxylate]",32 to 64,16 to 32,–
"COC(=O)CCc1c(C)nn(-c2ccccc2O)c1C [Example 23, Methyl 3-(1-(2-hydroxyphenyl)-3,5-dimethyl-1H-pyrazol-4-yl)propanoate]",32 to 64,16 to 32,–
"CCCCc1c(C)nn(-c2ccccc2O)c1C [Example 24, 2-(4-Butyl-3,5-dimethyl-1H-pyrazol-1-yl)phenol]",16 to 32,≤ 1,–
"Cc1cc(C)n(-c2ccc([N+](=O)[O-])cc2O)n1 [Example 28, 2-(3,5-Dimethyl-1H-pyrazol-1-yl)-5-nitrophenol]",16 to 32,2 to 8,–
"COC(=O)c1ccc(-n2nc(C)cc2C)c(O)c1 [Example 35, Methyl 4-(3,5-dimethyl-1H-pyrazol-1-yl)-3-hydroxybenzene carboxylate]",16 to 32,16 to 32,–
"Cc1cc(C)n(-c2c(N)cccc2O)n1 [Example 36, 3-Amino-2-(3,5-dimethyl-1H-pyrazol-1-yl)phenol]",32 to 64,–,< 50
"Cc1cc(C)n(-c2ccc(C(=O)O)cc2O)n1 [Example 37, 4-(3,5-Dimethyl-1H-pyrazol-1-yl)-3-hydroxybenzene carboxylic acid]",4 to 16,2 to 8,–
"Cc1cc(C)n(-c2ccc(C(=O)N(C)C)cc2O)n1 [Example 38, 4-(3,5-Dimethyl-1H-pyrazol-1-yl)-3-hydroxy-N,N-dimethylbenzamide]",4 to 16,16 to 32,–
"Cc1nn(-c2ccc(C(=O)O)cc2O)c(C)c1C [Example 40, 3-Hydroxy-4-(3,4,5-trimethyl-1H-pyrazol-1-yl)benzene carboxylic acid]",32 to 64,–,< 50
"Cc1nn(-c2ccc(C(N)=O)cc2O)c(C)c1C [Example 41, 3-Hydroxy-4-(3,4,5-trimethyl-1H-pyrazol-1-yl)benzamide]",32 to 64,–,50 to 80
"Cc1nn(-c2ccc(C(N)=O)cc2O)c(C)c1Cl [Example 42, 4-(4-Chloro-3,5-dimethyl-1H-pyrazol-1-yl)-3-hydroxybenzamide]",32 to 64,16 to 32,–
"Cc1cc(C)n(-c2c(O)cccc2O)n1 [Example 43, 2-(3,5-Dimethyl-1H-pyrazol-1-yl)benzene-1,3-diol]",32 to 64,–,< 50

# Further lines, with some results ahead:
MIC (T. rubrum ATCC10218) [µg/mL],MIC [1] [µg/mL],Structure (SMILES),inhibition of growth at 32 µg/mL [1] [%]
4 to 16,2 to 8,"Cc1cc(C)n(-c2ccccc2O)n1 [Example 1, 2-(3,5-Dimethyl-1H-pyrazol-1-yl)phenol]",–
≤ 2,≤ 1,"Cc1nn(-c2ccccc2O)c(C)c1C [Example 9, 2-(3,4,5-Trimethyl-1H-pyrazol-1-yl)phenol]",–
4 to 16,≤ 1,"Cc1nn(-c2ccccc2O)c(C)c1Cl [Example 13, 2-(4-Chloro-3,5-dimethyl-1H-pyrazol-1-yl)phenol]",–
4 to 16,2 to 8,"CCc1cc(CC)n(-c2ccccc2O)n1 [Example 14, 2-(3,5-Diethyl-1H-pyrazol-1-yl)phenol]",–
≤ 2,≤ 1,"CCc1c(C)nn(-c2ccccc2O)c1C [Example 17, 2-(4-Ethyl-3,5-dimethyl-1H-pyrazol-1-yl)phenol]",–
4 to 16,2 to 8,"Cc1nn(-c2ccc(F)cc2O)c(C)c1C [Example 18, 5-Fluoro-2-(3,4,5-trimethyl-1H-pyrazol-1-yl)phenol]",–
4 to 16,≤ 1,"Cc1nn(-c2ccc(F)cc2O)c(C)c1Cl [Example 21, 2-(4-Chloro-3,5-dimethyl-1H-pyrazol-1-yl)-5-fluoro phenol]",–
4 to 16,2 to 8,"Cc1cc(C)n(-c2ccc(F)cc2O)n1 [Example 25, 2-(3,5-Dimethyl-1H-pyrazol-1-yl)-5-fluorophenol]",–
≤ 2,≤ 1,"Cc1cc(C)n(-c2ccc(Cl)cc2O)n1 [Example 26, 5-Chloro-2-(3,5-dimethyl-1H-pyrazol-1-yl)phenol]",–
≤ 2,≤ 1,"Cc1nn(-c2ccc(Cl)cc2O)c(C)c1C [Example 30, 5-Chloro-2-(3,4,5-trimethyl-1H-pyrazol-1-yl)phenol]",–
4 to 16,2 to 8,"Cc1cc(C)n(-c2ccc(N)cc2O)n1 [Example 31, 5-Amino-2-(3,5-dimethyl-1H-pyrazol-1-yl)phenol]",–
4 to 16,2 to 8,"Cc1nn(-c2ccc([N+](=O)[O-])cc2O)c(C)c1C [Example 32, 5-Nitro-2-(3,4,5-trimethyl-1H-pyrazol-1-yl)phenol]",–
≤ 2,2 to 8,"Cc1cc(C)n(-c2ccc(O)cc2O)n1 [Example 33, 4-(3,5-Dimethyl-1H-pyrazol-1-yl)benzene-1,3-diol]",–
4 to 16,2 to 8,"Cc1nn(-c2ccc(N)cc2O)c(C)c1C [Example 34, 5-Amino-2-(3,4,5-trimethyl-1H-pyrazol-1-yl)phenol]",–
≤ 2,≤ 1,"Cc1ccc(-n2nc(C)cc2C)c(O)c1 [Example 44, 2-(3,5-Dimethyl-1H-pyrazol-1-yl)-5-methylphenol]",–
≤ 2,≤ 1,"COc1ccc(-n2nc(C)cc2C)c(O)c1 [Example 45, 2-(3,5-Dimethyl-1H-pyrazol-1-yl)-5-methoxyphenol]",–
